Reference: patent publication US10501493B2, “Broad spectrum antibiotics” (priority 2011, dated 2019)
≈ marks a conversion by molar mass, not a printed value. Like-named read-outs stand apart in the source and are kept apart here.

Key:
[1] = target: T1, E. coli SPase (Escherichia coli, UniProt P00803); test: Enzymatic fluorogenic substrate cleavage assay for IC50; type: biochemical
T1 construct: Full length His-tagged E. coli SPase proteins were expressed in E. coli BL21(DE3); His-tag; made in house; host or cells: E. coli BL21(DE3)
Experimental: (§1) Full length His-tagged E. coli SPase proteins were expressed in E. coli BL21(DE3) containing the plasmid pET23-lepB, P. A. Smith et al. Chem Biol 2010, 1223-1231. Briefly, saturated overnight cultures grown in 20 ml of Luria-Bertani medium supplemented with ampicillin were subcultures into 1.5 L of Luria-Bertani, and shaken at 37° C. until an optical density at 600 nm of 0.4-0.5 was achieved. Protein expression was induced with Isopropyl β-D-1-thiogalactopyranoside (ITPG) at a final concentration of […], and purified using nickel affinity chromatography. Full length His-tagged S. aureus SPase protein was expressed similarly from E. coli BL21(DE3) containing the plasmid pCDF1-SaSpsB or pCDF1-SaSpsB(P29S) and purified similarly to the E. coli protein with the following exceptions. SPase protein was solubilized using 300 mM NaCl, 20 mM Tris pH 8.06, 5 mM Imidazole, 10% glycerol, 1% Triton X-100, prior to purification in Ni-NTA Superflow resin and resin bound protein was washed in a similar buffer containing 1% Elugent in place of Triton X-100 prior to protein eluted in wash buffer supplemented with 300 mM imidazole. Protein purify was judged to exceed 95% by visual inspection of SDS-PAGE followed by Comassie staining. All protein concentrations were determined by BCA assay.
(§2) In addition to the equilibrium binding assays, compound activity is also characterized by measuring inhibition of E. coli and S. aureus substrate cleavage reactions using fluorogenic peptides developed at RQx Pharmaceuticals. Briefly, two fluorogenic peptide substrates (decanoyl-LSSPA Y^NO2 A ? ADK^abzPD (SEQ ID NO: 1) and decanyol-LTPTAY^NO2 A ? ASKK^abzDD (SEQ ID NO: 2)) have been synthesized, where abz is the fluorescence donor 2-aminobenzamide, YNO2 is the fluorescence acceptor 3-nitrotyrosine, and the cleavage site is indicated with an arrow. These substrates are processed with a second order rate constant (Kcat/KM) of 10^5 M^−1s^−1 for E. coli and S. aureus SPase enzymes, and cleavage results in a greater than 10-fold increase in fluorescence signal (excitation at 314 nm, emission at 416 nm) as measured using a SpectraMax M2 fluorescence microplate reader. Two-folder serial dilutions of compound are prepared in cleavage reaction buffer consisting of: 50 mM Tris-HCl pH 8.0, 100 mM NaCl, 10% glycerol, 1 mM EDTA, detergent (1% NP-40 or 0.1% Elugent™ for E. coli LepB or S. aureus SpsB respectively) and either 2.5 nM of E. coli SPase enzyme or 10 nM of S. aureus SPase enzyme. 40 μl aliquots of the compound dilution series in the protein/buffer solution is transferred to black 384-well polypropylene plates, and 10 μl of fluorogenic peptide at a concentration of 100 μM is added to initiate the reaction. The increase in fluorescence, corresponding to substrate cleavage, is monitored continuously at room temperature for 30 minutes and initial reaction rates are calculated based in the linear increase in fluorescence from the initial 30 minutes of the reaction. Reaction rates are plotted as a function of compound concentration, and IC50 values are determined nonlinear regression analysis (SoftMax® Pro v5.4) of the sigmoidal dose-response curve.

[2] = target: T2, S. aureus SPase (Staphylococcus aureus, UniProt P0A070); test: as above; type: biochemical
T2 construct: Full length His-tagged S. aureus SPase protein was expressed similarly; His-tag; made in house; host or cells: E. coli BL21(DE3)
Experimental: as §1, §2

[3] = system: E. col ATCC 25922 LepB(P84L); test: In vitro antimicrobial activity, MIC by broth micro-dilution; type: cell-based, E. coli; settings: for MIC: Escherichia coli, ATCC25922, read-out: MIC class, E. col ATCC 25922 LepB(P84L)
Experimental: (§3) In vitro antimicrobial activity of each compound was determined by measuring minimal inhibitor concentrations (MICs) using the broth micro-dilution technique as approved by the Clinical and Laboratory Standards Institute (CLSI). The microbiological panel examined contains a number of bacterial species including E. coli MG1655, P. aeruginosa, S. aureus, and S. epidermidis. In addition, the panel includes previously described pseudo-isogenic strains of these four species (P. A. Smith et al. Chem Biol 2010, 1223-1231), in which a specific proline residue in SPase (called LepB in Gram-negative organisms an SpsB in Gram-positive organisms) has been mutated to a different amino acid. The resulting strains have increased susceptibility to the arylomycin class of antibiotics. Analysis of the strains lacking this proline residue will increases the dynamic range of the assay, and comparison of the sensitivities of the isogenic pairs provides ongoing confirmation that the activity gained through derivatization is specific to the inhibition of SPase. Briefly, bacterial streaks were grown on Mueller Hinton Agar II (Difco™) with or without 5% lysed horse blood for a period of 24 hours at either 35° C. or 28° C. Bacterial colonies were suspended in cation adjusted Mueller Hinton broth and diluted to a final concentration of 1*10^7 colony forming units/ml. Two-fold serial dilutions of each compound were arrayed into 96-well plates (100 μl final volume per well) and 5 ul of the bacterial suspension will be added. […] MICs were periodically checked plating serial dilutions of MIC wells and quantitatively determining viable colonies.

[4] = system: S. aurues NCTC-8325; test: as above; type: cell-based, S. aureus; settings: for MIC: Staphylococcus aureus, NCTC8325, read-out: MIC class, S. aurues NCTC-8325
Experimental: as §3

[5] = system: S. epidermidis RP62A; test: as above; type: cell-based; settings: for MIC: Staphylococcus epidermidis, RP62A, read-out: MIC class, S. epidermidis RP62A
Experimental: as §3

[6] = system: S. aureus NCTC-8325 SpsB(P295); test: as above; type: cell-based; settings: for MIC: Staphylococcus aureus, NCTC8325, read-out: MIC class, S. aureus NCTC-8325 SpsB(P295)
Experimental: as §3

[7] = system: E. coli ATCC 25922; test: as above; type: cell-based
Experimental: as §3

[8] = system: S. pneumoniae D39; test: as above; type: cell-based; settings: for MIC: Streptococcus pneumoniae, D39, read-out: MIC class, S. pneumoniae D39
Experimental: as §3

[9] = fluorogenic peptide cleavage, read-out: IC50 class E. coli SPase
[10] = fluorogenic peptide cleavage, read-out: IC50 class S. aureus SPase
[11] = Escherichia coli, ATCC25922; read-out: MIC class, E. coli ATCC 25922

SMILES	IC50 [1, 9] [µM]	IC50 [2, 10] [µM]	MIC class, E. col ATCC 25922 LepB(P84L) [3]	MIC class, S. aurues NCTC-8325 [4]	MIC class, S. epidermidis RP62A [5]	MIC class, S. aureus NCTC-8325 SpsB(P295) [6]	MIC class, E. coli ATCC 25922 ([7]; E. coli ATCC 25922)	MIC class, S. pneumoniae D39 [8]	IC50 [1] [µM]	IC50 [2] [µM]	MIC [3] [mg/L]	MIC [4] [mg/L]	MIC [5] [mg/L]	MIC [6] [mg/L]	MIC ([7]; Escherichia coli, ATCC25922, read-out: MIC class, E. coli ATCC 25922) [mg/L]	MIC [8] [mg/L]	MIC [7, 11] [mg/L]
CCCCCCCCCCCCCCCC(=O)N(C)[C@H](CO)C(=O)N[C@H](C)C(=O)NCC(=O)N(C)[C@@H]1C(=O)N[C@@H](C)C(=O)N[C@H](C(=O)NCC=O)CCCc2ccc(O)c(c2)-c2cc1ccc2O [Compound 94]	< 1	< 1	a (MIC >64 μg/ml)	a (MIC >64 μg/ml)	c (MIC ≤8 μg/ml)	a (MIC >64 μg/ml)	a (MIC >64 μg/ml)	b (MIC 16-64 μg/ml)	–	–	–	–	–	–	–	–	–
CCCCCCCCCCCCCCCC(=O)N(C)[C@H](CO)C(=O)N[C@H](C)C(=O)NCC(=O)N(C)[C@@H]1C(=O)N[C@@H](C)C(=O)N[C@H](C(=O)NCC(O)C(=O)NC)Cc2ccc(O)c(c2)-c2cc1ccc2O (stereo partly drawn) [Compound 90]	1 to 10	1 to 10	a (MIC >64 μg/ml)	a (MIC >64 μg/ml)	c (MIC ≤8 μg/ml)	a (MIC >64 μg/ml)	a (MIC >64 μg/ml)	c (MIC ≤8 μg/ml)	–	–	–	–	–	–	–	–	–
CCCCCCCCCCCCCCCC(=O)N(C)[C@H](CO)C(=O)N[C@H](C)C(=O)NCC(=O)N(C)[C@@H]1C(=O)N[C@@H](C)C(=O)N[C@H](C(=O)O)Cc2ccc(OC)c(c2)-c2cc1ccc2OC [Compound 77]	–	–	–	–	–	–	–	–	> 10	1 to 10	< 8	> 64	> 64	16 to 64 (≈ 17.6 to 70.4 µM)	> 64	16 to 64 (≈ 17.6 to 70.4 µM)	–
CCCCCCCCCCCCCCCC(=O)N(C)[C@H](CO)C(=O)N[C@H](C)C(=O)N[C@@H](C)C(=O)N(C)[C@@H]1C(=O)N[C@@H](C)C(=O)N[C@H](C(=O)O)Cc2ccc(O)c(c2)-c2cc1ccc2O [Compound 91]	–	–	–	–	–	–	–	–	< 1	< 1	> 64	> 64	< 8	> 64	–	< 8	> 64
CCCCCCCCCCCCCCCC(=O)N(C)[C@H](CO)C(=O)N[C@H](C)C(=O)NCC(=O)N(C)[C@@H]1C(=O)N[C@@H](C)C(=O)N[C@H](C(=O)N[C@H](CO)Cc2c[nH]c3ccccc23)Cc2ccc(O)c(c2)-c2cc1ccc2O [Compound 74]	–	–	–	–	–	–	–	–	1 to 10	> 10	> 64	> 64	> 64	> 64	–	16 to 64 (≈ 15.2 to 60.8 µM)	> 64
CCCCCCCCCCCCCCCC(=O)N(C)[C@H](CO)C(=O)N[C@H](C)C(=O)NCC(=O)N(C)[C@@H]1C(=O)N[C@@H](C)C(=O)N[C@H](C(=O)NCC(=O)NS(C)(=O)=O)Cc2ccc(O)c(c2)-c2cc1ccc2O [Compound 60]	–	–	–	–	–	–	–	–	< 1	1 to 10	< 8	> 64	< 8	> 64	–	< 8	> 64
CCCCCCCCCCCCCCCC(=O)N(C)[C@H](CO)C(=O)N[C@H](C)C(=O)NCC(=O)N(C)[C@@H]1C(=O)N[C@@H](C)C(=O)N[C@H](C(=O)NC[C@H](C)O)Cc2ccc(O)c(c2)-c2cc1ccc2O [Compound 64]	–	–	–	–	–	–	–	–	1 to 10	> 10	16 to 64 (≈ 17.1 to 68.2 µM)	> 64	< 8	> 64	–	< 8	> 64
CCCCCCCCCCCCCCCC(=O)N(C)C(CO)C(=O)N[C@H](C)C(=O)NCC(=O)N(C)[C@@H]1C(=O)N[C@@H](C)C(=O)NC(C(=O)NCC(O)CO)Cc2ccc(O)c(c2)-c2cc1ccc2O (stereo partly drawn) [Compound 62]	–	–	–	–	–	–	–	–	1 to 10	> 10	16 to 64 (≈ 16.8 to 67.1 µM)	> 64	> 64	> 64	–	16 to 64 (≈ 16.8 to 67.1 µM)	> 64
CCCCCCCCCCCCCCNC(=O)N(C)[C@H](CO)C(=O)N[C@H](C)C(=O)NCC(=O)N(C)[C@@H]1C(=O)N[C@@H](C)C(=O)N[C@H](C(=O)O)Cc2ccc(O)c(c2)-c2cc1ccc2O [Compound 72]	–	–	–	–	–	–	–	–	< 1	< 1	< 8	> 64	< 8	16 to 64 (≈ 18.1 to 72.6 µM)	–	16 to 64 (≈ 18.1 to 72.6 µM)	> 64
CCCCCCCCCCCCCCCC(=O)N(C)[C@H](CO)C(=O)N[C@H](C)C(=O)NCC(=O)N(C)[C@@H]1C(=O)N[C@@H](C)C(=O)N[C@H](C(=O)O)CCCc2ccc(O)c(c2)-c2cc1ccc2O [Compound 83]	1 to 10	< 1	c (MIC ≤8 μg/ml)	a (MIC >64 μg/ml)	c (MIC ≤8 μg/ml)	b (MIC 16-64 μg/ml)	a (MIC >64 μg/ml)	c (MIC ≤8 μg/ml)	–	–	–	–	–	–	–	–	–
CCCCCCCCCCCCCCCC(=O)N(C)[C@H](CO)C(=O)N[C@H](C)C(=O)NCC(=O)N(C)[C@@H]1C(=O)N[C@@H](C)C(=O)N[C@H](C(=O)NC(CO)(CO)CO)Cc2ccc(O)c(c2)-c2cc1ccc2O [Compound 70]	–	–	–	–	–	–	–	–	< 1	> 10	< 8	> 64	< 8	> 64	–	16 to 64 (≈ 16.3 to 65 µM)	> 64
CCCCCCCCCCCCCCCC(=O)N(C)C(CO)C(=O)N[C@H](C)C(=O)NCC(=O)N(C)[C@@H]1C(=O)N[C@@H](C)C(=O)NC(C(=O)NCC(=O)C(=O)N(C)C)Cc2ccc(O)c(c2)-c2cc1ccc2O (stereo partly drawn) [Compound 59]	–	–	–	–	–	–	–	–	< 1	1 to 10	16 to 64 (≈ 16.1 to 64.4 µM)	> 64	< 8	> 64	–	16 to 64 (≈ 16.1 to 64.4 µM)	> 64
